Structures can show the parent of a compound that is named as a salt.

In the test the target is IRE1α (Homo sapiens (Human), UniProt O75460, D688N). Briefly: IRE1α TR-FRET competition binding assay (IRE1α HTRF). The note with it: TR-FRET competition binding to kinase domain of IRE1α. The essentials: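 Competition of compounds against an Alexa fluor 647 ATP-site probe (2 nM final) for the His-tagged kinase domain (0.25 nM final), detected via 2 nM Eu anti-His antibody by TR-FRET, 665 and 615 nm emission. Protein–antibody premix 1 h, 4° C; reaction 1 h, room temperature, pH 7.5 HEPES buffer.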
Sequence of IRE1α (O75460 547-977 D688N): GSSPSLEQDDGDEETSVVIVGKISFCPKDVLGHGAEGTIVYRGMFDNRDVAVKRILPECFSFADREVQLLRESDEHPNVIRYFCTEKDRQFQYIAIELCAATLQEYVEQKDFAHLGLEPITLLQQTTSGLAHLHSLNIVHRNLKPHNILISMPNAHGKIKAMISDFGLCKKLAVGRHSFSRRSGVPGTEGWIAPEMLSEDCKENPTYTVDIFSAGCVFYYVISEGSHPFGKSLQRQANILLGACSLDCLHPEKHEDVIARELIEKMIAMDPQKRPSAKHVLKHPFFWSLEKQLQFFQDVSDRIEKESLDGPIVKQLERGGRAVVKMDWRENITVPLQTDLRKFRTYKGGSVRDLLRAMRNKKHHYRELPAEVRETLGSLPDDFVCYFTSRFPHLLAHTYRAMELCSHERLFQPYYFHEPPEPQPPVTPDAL
Background: TR-FRET usually uses a lanthanide donor and a delayed reading to cut background.
Broadly, the IC50 is the midpoint of a concentration-inhibition curve. Lower therefore signals greater potency. Regarding `CC(C)n1c(=O)c(-c2ccc(NS(=O)(=O)c3ccccc3Cl)nc2)nc2cnc(N[C@H]3CC[C@H](N(C)CCF)CC3)nc21` [Compound 188, 2-Chloro-N-(5-(2-(((1r,4r)-4-((2-fluoroethyl)(methyl)amino)cyclohexyl)amino)-8-isopropyl-7-oxo-7,8-dihydropteridin-6-yl)pyridin-2-yl)benzenesulfonamide hydrochloride], the IC50 was 0.27 nM.
The result for `CC(C)n1c(=O)c(-c2cc(F)c(NS(=O)(=O)CCC(F)(F)F)cc2F)nc2cnc(N[C@H]3CC[C@H](N(C)C)CC3)nc21` [Compound 189, N-(4-(2-(((1r,4r)-4-(dimethylamino)cyclohexyl)amino)-8-isopropyl-7-oxo-7,8-dihydropteridin-6-yl)-2,5-difluorophenyl)-3,3,3-trifluoropropane-1-sulfonamide] reads 0.49 nM.
`CC(C)n1c(=O)c(-c2ccc(NS(=O)(=O)c3ccccc3C#N)c(F)c2)nc2cnc(N[C@H]3CC[C@H](N(C)C)CC3)nc21` [Compound 190, 2-Cyano-N-(4-(2-(((1r,4r)-4-(dimethylamino)cyclohexyl)amino)-8-isopropyl-7-oxo-7,8-dihydropteridin-6-yl)-2-fluorophenyl)benzenesulfonamide]: the IC50 amounted to 0.18 nM.
The value for `CC(C)n1c(=O)c(-c2ccc(NS(=O)(=O)c3cccnc3)c(F)c2)nc2cnc(N[C@H]3CC[C@H](N(C)C)CC3)nc21` [Compound 191, N-(4-(2-(((1r,4r)-4-(Dimethylamino)cyclohexyl)amino)-8-isopropyl-7-oxo-7,8-dihydropteridin-6-yl)-2-fluorophenyl)pyridine-3-sulfonamide hydrochloride] was 0.25 nM; that for `Cc1nc(NS(=O)(=O)c2ccccc2C#N)ccc1-c1nc2cnc(N[C@H]3CC[C@H](N(C)CCF)CC3)nc2n(C(C)C)c1=O` [Compound 194, 2-Cyano-N-(5-(2-(((1r,4r)-4-((2-fluoroethyl)(methyl)amino)cyclohexyl)amino)-8-isopropyl-7-oxo-7,8-dihydropteridin-6-yl)-6-methylpyridin-2-yl)benzenesulfonamide] was 0.31 nM; that for `Cc1nc(NS(=O)(=O)c2ccccc2Cl)ccc1-c1nc2cnc(N[C@H]3CC[C@H](N(C)CCF)CC3)nc2n(C(C)C)c1=O` [Compound 195, 2-Chloro-N-(5-(2-(((1r,4r)-4-((2-fluoroethyl)(methyl)amino)cyclohexyl)amino)-8-isopropyl-7-oxo-7,8-dihydropteridin-6-yl)-6-methylpyridin-2-yl)benzenesulfonamide] was 0.29 nM.
The result for `CC(C)n1c(=O)c(-c2ccc(NS(=O)(=O)CCC(F)(F)F)c(F)c2F)cc2cnc(N[C@H]3CC[C@H](N(C)C)CC3)nc21` [Compound 197, N-(4-(2-(((1,4-trans)-4-(Dimethylamino)cyclohexyl)amino)-8-isopropyl-7-oxo-7,8-dihydropyrido[2,3-d]pyrimidin-6-yl)-2,3-difluorophenyl)-3,3,3-trifluoropropane-1-sulfonamide] reads 0.26 nM; that for `CC(C)n1c(=O)c(-c2ccc(NS(=O)(=O)CCC(F)(F)F)c(F)c2)cc2cnc(N[C@H]3CC[C@H](N4CCC4)CC3)nc21` [Compound 198, N-(4-(2-(((1,4-trans)-4-(Azetidin-1-yl)cyclohexyl)amino)-8-isopropyl-7-oxo-7,8-dihydropyrido[2,3-d]pyrimidin-6-yl)-2-fluorophenyl)-3,3,3-trifluoropropane-1-sulfonamide formate], 0.41 nM.
The compound `CC(C)n1c(=O)c(-c2ccc(NS(=O)(=O)CCC(F)(F)F)c(F)c2)cc2cnc(N[C@H]3CC[C@H](N4CCCC4)CC3)nc21` [Compound 199, 3,3,3-Trifluoro-N-(2-fluoro-4-(8-isopropyl-7-oxo-2-(((1,4-trans)-4-(pyrrolidin-1-yl)cyclohexyl)amino)-7,8-dihydropyrido[2,3-d]pyrimidin-6-yl)phenyl)propane-1-sulfonamide] returned an IC50 of 0.25 nM.
With `CC(C)n1c(=O)c(-c2ccc(NS(=O)(=O)CCC(F)(F)F)c(F)c2)cc2cnc(NC3CCN(C)CC3)nc21` [Compound 200, 3,3,3-Trifluoro-N-(2-fluoro-4-(8-isopropyl-2-((1-methylpiperidin-4-yl)amino)-7-oxo-7,8-dihydropyrido[2,3-d]pyrimidin-6-yl)phenyl)propane-1-sulfonamide formate], the concentration for half-maximal inhibition (IC50) stood at 20 nM.
Compound `CC(C)n1c(=O)c(-c2ccc(NS(=O)(=O)CCC(F)(F)F)c(F)c2)cc2cnc(NC3CCNCC3)nc21` [Compound 201, 3,3,3-Trifluoro-N-(2-fluoro-4-(8-isopropyl-7-oxo-2-(piperidin-4-ylamino)-7,8-dihydropyrido[2,3-d]pyrimidin-6-yl)phenyl)propane-1-sulfonamide] returned an IC50 of 8.7 nM. This IC50 lies about 2.3-fold lower than the previous one.
For the compound `CC(C)n1c(=O)c(-c2ccc(NS(=O)(=O)CCC(F)(F)F)c(F)c2)cc2cnc(N[C@H]3CC[C@H](N(C)CC4COC4)CC3)nc21` [Compound 204, 3,3,3-Trifluoro-N-(2-fluoro-4-(8-isopropyl-2-(((1,4-trans)-4-(methyl(oxetan-3-ylmethyl)amino)cyclohexyl)amino)-7-oxo-7,8-dihydropyrido[2,3-d]pyrimidin-6-yl)phenyl)propane-1-sulfonamide], the half-maximal inhibitory concentration (IC50) was 1 nM.
The value for `CCN(C)[C@H]1CC[C@H](Nc2ncc3cc(-c4ccc(NS(=O)(=O)CCC(F)(F)F)c(F)c4)c(=O)n(C(C)C)c3n2)CC1` [Compound 205, N-(4-(2-(((1,4-trans)-4-(Ethyl(methyl)amino)cyclohexyl)amino)-8-isopropyl-7-oxo-7,8-dihydropyrido[2,3-d]pyrimidin-6-yl)-2-fluorophenyl)-3,3,3-trifluoropropane-1-sulfonamide] was 0.14 nM; that for `CC(C)n1c(=O)c(-c2ccc(NS(=O)(=O)CCC(F)(F)F)c(F)c2)cc2cnc(N[C@H]3CC[C@H](N(C)C4COC4)CC3)nc21` [Compound 206, 3,3,3-Trifluoro-N-(2-fluoro-4-(8-isopropyl-2-(((1,4-trans)-4-(methyl(oxetan-3-yl)amino)cyclohexyl)amino)-7-oxo-7,8-dihydropyrido[2,3-d]pyrimidin-6-yl)phenyl)propane-1-sulfonamide] was 0.17 nM.
The result for `CC(C)n1c(=O)c(-c2ccc(NS(=O)(=O)CCC(F)(F)F)c(F)c2)cc2cnc(N[C@H]3CC[C@H](N(C)C4CC4)CC3)nc21` [Compound 207, N-(4-(2-(((1,4-trans)-4-(Cyclopropyl(methyl)amino)cyclohexyl)amino)-8-isopropyl-7-oxo-7,8-dihydropyrido[2,3-d]pyrimidin-6-yl)-2-fluorophenyl)-3,3,3-trifluoropropane-1-sulfonamide] reads 0.21 nM; that for `O=c1c(-c2ccc(NS(=O)(=O)Cc3ccccc3F)c(F)c2)cc2cnc(N[C@@H]3CNC[C@@H](F)C3)nc2n1CCO` [Compound 208, N-[2-Fluoro-4-[2-[[(3S,5S)-5-fluoro-3-piperidyl]amino]-8-(2-hydroxyethyl)-7-oxo-pyrido[2,3-d]pyrimidin-6-yl]phenyl]-1-(2-fluorophenyl)methanesulfonamide], 1.2 nM.
With `CC(C)n1c(=O)c(-c2ccc(NS(=O)(=O)CCC(F)(F)F)c(F)c2)cc2cnc(N[C@H]3CC[C@H](N(C)CC4CCO4)CC3)nc21` (stereo partly drawn) [Compound 209, 3,3,3-Trifluoro-N-(2-fluoro-4-(8-isopropyl-2-(((1,4-trans)-4-(methyl(oxetan-2-ylmethyl)amino)cyclohexyl)amino)-7-oxo-7,8-dihydropyrido[2,3-d]pyrimidin-6-yl)phenyl)propane-1-sulfonamide], the IC50 was 0.19 nM.
`COCCN(CCOC)[C@H]1CC[C@H](Nc2ncc3cc(-c4ccc(NS(=O)(=O)CCC(F)(F)F)c(F)c4)c(=O)n(C(C)C)c3n2)CC1` [Compound 210, N-(4-(2-(((1,4-trans)-4-(Bis(2-methoxyethyl)amino)cyclohexyl)amino)-8-isopropyl-7-oxo-7,8-dihydropyrido[2,3-d]pyrimidin-6-yl)-2-fluorophenyl)-3,3,3-trifluoropropane-1-sulfonamide] registered a concentration for half-maximal inhibition (IC50) of 0.25 nM.
The value for `CC(C)n1c(=O)c(-c2ccc(NS(=O)(=O)CCC(F)(F)F)c(F)c2)cc2cnc(N[C@H]3CC[C@H](N4CC5(COC5)C4)CC3)nc21` [Compound 212, N-(4-(2-(((1,4-trans)-4-(2-Oxa-6-azaspiro[3.3]heptan-6-yl)cyclohexyl)amino)-8-isopropyl-7-oxo-7,8-dihydropyrido[2,3-d]pyrimidin-6-yl)-2-fluorophenyl)-3,3,3-trifluoropropane-1-sulfonamide] was 0.24 nM.
Take `CC(C)n1c(=O)c(-c2ccc(NS(=O)(=O)CCC(F)(F)F)c(F)c2)cc2cnc(N[C@H]3CC[C@H](N4CCOCC4)CC3)nc21` [Compound 213, 3,3,3-Trifluoro-N-(2-fluoro-4-(8-isopropyl-2-(((1,4-trans)-4-morpholinocyclohexyl)amino)-7-oxo-7,8-dihydropyrido[2,3-d]pyrimidin-6-yl)phenyl)propane-1-sulfonamide]: the 50% inhibitory concentration (IC50) was 0.14 nM.
In turn, `CC(C)n1c(=O)c(-c2ccc(NS(=O)(=O)CCC(F)(F)F)c(F)c2)cc2cnc(NC3CCC(N(C)C)C(O)C3)nc21` (stereo not shown) [Compound 226, N-(4-(2-((4-(dimethylamino)-3-hydroxycyclohexyl)amino)-8-isopropyl-7-oxo-7,8-dihydropyrido[2,3-d]pyrimidin-6-yl)-2-fluorophenyl)-3,3,3-trifluoropropane-1-sulfonamide] showed an IC50 of 0.3 nM.
Compound `CC(C)n1c(=O)c(-c2ccc(NS(=O)(=O)CCC(F)(F)F)c(F)c2)cc2cnc(N[C@H]3CC[C@H](N(C)C)[C@@H](O)C3)nc21` [Compound 228, N-(4-(2-(((1S,3S,4S)-4-(dimethylamino)-3-hydroxycyclohexyl)amino)-8-isopropyl-7-oxo-7,8-dihydropyrido[2,3-d]pyrimidin-6-yl)-2-fluorophenyl)-3,3,3-trifluoropropane-1-sulfonamide] yielded a half-maximal inhibitory concentration (IC50) of 0.2 nM.

These data come from US12344603B2 (Genentech, Inc., priority 2020, dated 2025).
